According to patent publication US20260193236A1 (Protego Biopharma, Inc., priority 2022, published 2026):

What follows are compounds tested on IRE1-XBP1s (XBP1-RLuc splicing reporter in HEK293 T-REx cells) (assay: IRE1-XBP1s activation assay (XBP1-RLuc splicing reporter, HEK293 T-REx cells, luminescence relative to thapsigargin)). Conditions: 18 h, compound 10 μM, HEK293 T-REx XBP1-RLuc reporter cells, relative to thapsigargin (Tg) 500 nM, read-out: Activity (IRE1-XBP1s activation, luminescence as % signal relative to thapsigargin, % Tg).
Assay type: cell-based
Procedure: IRE1-XBP1s activation Assay: HEK293 T-REx cells stably expressing the XBP1-RLuc splicing reporter were treated with an IRE1-XBP1s activator provided herein (10 μM) in the presence or absence of the IRE1 active site inhibitor 4μ8C (32 μM) for 18 h. Luminescence was shown as the percentage signal relative to thapsigargin (Tg) (500 nM, 18 h).

Compound	activation at 10 µM
Cc1ccc(OCCN(C)C(=O)Cn2cc(NC(=O)[C@H](C)CNc3ccc(F)nc3C)cn2)cc1 [Compound 170]	30 to 50%
Cc1ccc(OCCN(C)C(=O)Cn2cc(NC(=O)[C@@H](CNc3ccc(F)nc3C)C(C)C)cn2)cc1 [Compound 171]	30 to 50%
Cc1ccc(OCCN(C)C(=O)Cn2cc(NC(=O)[C@H](CNc3ccc(F)nc3C)C(C)C)cn2)cc1 [Compound 172]	30 to 50%
Cc1ccc(OCCN(C)C(=O)Cn2cc(NC(=O)CCNc3cc(C)ncc3C)cn2)cc1 [Compound 173]	< 30%
Cc1ccc(OCCN(C)C(=O)Cn2cc(NC(=O)CCNc3cccnc3C)cn2)cc1 [Compound 174]	30 to 50%
COc1ccnc(NCCC(=O)Nc2cnn(CC(=O)N(C)CCOc3ccc(C)cc3)c2)c1 [Compound 175]	30 to 50%
Cc1ccc(OCCN(C)C(=O)Cn2cc(NC(=O)CCNc3ccc(C#N)nc3C)cn2)cc1 [Compound 176]	< 30%
Cc1ccc(OCCN(C)C(=O)Cn2cc(NC(=O)CCNc3cnc(C#N)c(F)c3)cn2)cc1 [Compound 177]	30 to 50%
Cc1ccc(OCCN(C)C(=O)Cn2cc(NC(=O)CCNc3ccc(Cl)nc3)cn2)cc1 [Compound 178]	30 to 50%
Cc1ccc(OCCN(C)C(=O)Cn2cc(NC(=O)CCNc3cnc(F)cc3C)cn2)cc1 [Compound 179]	> 50%
Cc1ccc(OCCN(C)C(=O)Cn2cc(NC(=O)CCNc3cncc(C)c3)cn2)cc1 [Compound 180]	30 to 50%
Cc1ccc(OCCN(C)C(=O)Cn2cc(NC(=O)CCNc3ccc(C)nc3F)cn2)cc1 [Compound 181]	< 30%
Cc1ccc(OCCN(C)C(=O)Cn2cc(NC(=O)CCNc3ccncc3Cl)cn2)cc1 [Compound 182]	> 50%
COc1ncc(Cl)cc1NCCC(=O)Nc1cnn(CC(=O)N(C)CCOc2ccc(C)cc2)c1 [Compound 183]	< 30%
Cc1ccc(OCCN(C)C(=O)Cn2cc(NC(=O)CCNc3cnc(F)c(Cl)c3)cn2)cc1 [Compound 184]	> 50%
Cc1ccc(OCCN(C)C(=O)Cn2cc(NC(=O)CCNc3cncc(C(F)(F)F)n3)cn2)cc1 [Compound 185]	< 30%
Cc1ccc(OCCN(C)C(=O)Cn2cc(NC(=O)CCNc3cccnc3C(F)(F)F)cn2)cc1 [Compound 186]	> 50%
COc1ncc(C(F)(F)F)cc1NCCC(=O)Nc1cnn(CC(=O)N(C)CCOc2ccc(C)cc2)c1 [Compound 187]	30 to 50%
COc1cccc(NCCC(=O)Nc2cnn(CC(=O)N(C)CCOc3ccc(C)cc3)c2)n1 [Compound 188]	< 30%
Cc1ccc(OCCN(C)C(=O)Cn2cc(NC(=O)CCNc3cccnc3F)cn2)cc1 [Compound 189]	< 30%
Cc1ccc(OCCN(C)C(=O)Cn2cc(NC(=O)CCNc3ccnc(F)c3Cl)cn2)cc1 [Compound 190]	< 30%
CCOc1cc(NCCC(=O)Nc2cnn(CC(=O)N(C)CCOc3ccc(C)cc3)c2)ccn1 [Compound 191]	< 30%

Compound	activation at 10 µM
Cc1ccc(OCCN(C)C(=O)Cn2cc(NC(=O)CCNc3ccncc3F)cn2)cc1 [Compound 192]	> 50%
Cc1ccc(OCCN(C)C(=O)Cn2cc(NC(=O)CCNc3ncc(F)cn3)cn2)cc1 [Compound 193]	30 to 50%
Cc1ccc(OCCN(C)C(=O)Cn2cc(NC(=O)CCNc3cc(C)cnc3F)cn2)cc1 [Compound 194]	< 30%
Cc1ccc(OCCN(C)C(=O)Cn2cc(NC(=O)CCNc3ncc(C)cc3C)cn2)cc1 [Compound 195]	< 30%
Cc1ccc(OCCN(C)C(=O)Cn2cc(NC(=O)CCNc3ccc(F)nc3C)cn2)cc1 [Compound 196]	> 50%
COc1ccc(NCCC(=O)Nc2cnn(CC(=O)N(C)CCOc3ccc(C)cc3)c2)c(C)n1 [Compound 197]	30 to 50%
COc1cnccc1NCCC(=O)Nc1cnn(CC(=O)N(C)CCOc2ccc(C)cc2)c1 [Compound 198]	< 30%
Cc1ccc(OCCN(C)C(=O)Cn2cc(NC(=O)CCNc3ccnc4ncnn34)cn2)cc1 [Compound 200]	< 30%
Cc1ccc(OCCN(C)C(=O)Cn2cc(NC(=O)OC3CCCN(c4ccnc(F)n4)C3)cn2)cc1 (centres unmarked) [Compound 201]	< 30%
Cc1ccc(OCCN(C)C(=O)Cn2cc(NC(=O)CCNc3cc(N)ccn3)cn2)cc1 [Compound 202]	> 50%
Cc1ncccc1NCCC(=O)Nc1cnn(CC(=O)N(C)CCOc2ccc(C(F)(F)F)cc2)c1 [Compound 204]	< 30%
Cc1ccc(OCCN(C)C(=O)Cn2cc(NC(=O)CCOc3ccc(N)cn3)cn2)cc1 [Compound 205]	> 50%
Cc1ccc(OCCN(C)C(=O)Cn2cc(NC(=O)CCNc3ncc(F)cc3C)cn2)cc1 [Compound 206]	> 50%
Cc1ccc(OCCN(C)C(=O)Cn2cc(NC(=O)CCNc3cc(C)ncc3F)cn2)cc1 [Compound 207]	< 30%
Cc1ccc(OCCN(C)C(=O)Cn2cc(NC(=O)CCNc3ccnc(C)c3F)cn2)cc1 [Compound 209]	< 30%
Cc1ccc(OCCN(C)C(=O)Cn2cc(NC(=O)CCNc3nc(C)ncc3C(C)C)cn2)cc1 [Compound 210]	> 50%
CNC(=O)c1cnc(NCCC(=O)Nc2cnn(CC(=O)N(C)CCOc3ccc(C)cc3)c2)nc1 [Compound 211]	< 30%
Cc1ccc(OCCN(C)C(=O)Cn2cc(NC(=O)CCNc3cnc(C)nc3)cn2)cc1 [Compound 212]	< 30%
CN(CCOc1ccc(C(F)(F)F)cn1)C(=O)Cn1cc(NC(=O)CCNc2c(F)cncc2Cl)cn1 [Compound 213]	> 50%
Cc1ccc(OCCN(C)C(=O)Cn2cc(NC(=O)CCNc3c(F)cnc(C)c3C3CC3)cn2)cc1 [Compound 214]	> 50%
Cc1ccc(OCCN(C)C(=O)Cn2cc(NC(=O)CCNc3c(F)cnc(C)c3C)cn2)cc1 [Compound 215]	> 50%
CNc1ccnc(OCCC(=O)Nc2cnn(CC(=O)N(C)CCOc3ccc(C)cc3)c2)n1 [Compound 216]	< 30%

Compound	activation at 10 µM
Cc1ccc(OCCN(C)C(=O)Cn2cc(NC(=O)CC(C)(C)Nc3ccnc(F)n3)cn2)cc1 [Compound 217, 3-((2-fluoropyrimidin-4-yl)amino)-3-methyl-N-(1-(2-(methyl(2-(p-tolyloxy)ethyl)amino)-2-oxoethyl)-1H-pyrazol-4-yl)butanamide]	< 30%
Cc1ccc(OCCN(C)C(=O)Cn2cc(NC(=O)CC(C)(C)Nc3nccc(F)n3)cn2)cc1 [Compound 218, 3-((4-fluoropyrimidin-2-yl)amino)-3-methyl-N-(1-(2-(methyl(2-(p-tolyloxy)ethyl)amino)-2-oxoethyl)-1H-pyrazol-4-yl)butanamide]	> 50%
Cc1ccc(OCCN(C)C(=O)Cn2cc(NC(=O)C(CNc3ccc(F)nc3C)C3CCCCC3)cn2)cc1 (centres unmarked) [Compound 219]	30 to 50%
Cc1ccc(OCCN(C)C(=O)Cn2cc(NC(=O)[C@@H](C)CNc3ccc(F)nc3C)cn2)cc1 [Compound 220]	30 to 50%
Cc1ccc(OCCN(C)C(=O)Cn2cc(NC(=O)C(C)(C)CNc3ccc(F)nc3C)cn2)cc1 [Compound 221]	< 30%
[2H]C([2H])([2H])c1ccc(OCCN(C)C(=O)Cn2cc(NC(=O)CCNc3ccnc(F)n3)cn2)cc1 [Compound 222]	> 50%
Cc1ccc(OCCN(C)C(=O)Cn2cc(NC(=O)[C@@H](C)CNc3nccc(F)n3)cn2)cc1 [Compound 223]	> 50%
Cc1ccc(OCCN(C)C(=O)Cn2cc(NC(=O)[C@@H](C)CNc3ccnc(F)n3)cn2)cc1 [Compound 224]	> 50%
Cc1ccc(OCCN(C)C(=O)Cn2cc(NC(=O)[C@H](C)CNc3ccnc(F)n3)cn2)cc1 [Compound 225]	30 to 50%
Cc1ccc(OCCN(C)C(=O)Cn2cc(NC(=O)CCNc3cc(Cl)nc4nccn34)cn2)cc1 [Compound 226]	< 30%
Cc1ccc(OCCN(C)C(=O)Cn2cc(NC(=O)CCNc3ccnc4nccn34)cn2)cc1 [Compound 227]	< 30%
Cc1ccc(OCCN(C)C(=O)Cn2cc(NC(=O)CCNc3c(F)cncc3C=O)cn2)cc1 [Compound 230, 3-((3-fluoro-5-formylpyridin-4-yl)amino)-N-(1-(2-(methyl(2-(p-tolyloxy)ethyl)amino)-2-oxoethyl)-1H-pyrazol-4-yl)propanamide]	> 50%
Cc1ccc(OCCN(C)C(=O)Cn2cc(NC(=O)CCNc3c(F)cncc3C(C)C)cn2)cc1 [Compound 231]	> 50%
CC(=O)c1cncc(F)c1NCCC(=O)Nc1cnn(CC(=O)N(C)CCOc2ccc(C)cc2)c1 [Compound 232]	> 50%
Cc1ccc(OCCN(C)C(=O)Cn2cc(NC(=O)CCOc3cccnc3N)cn2)cc1 [Compound 233]	> 50%
C#CCCC1(CCC(=O)Nc2ccc(OCCC(=O)Nc3cnn(CC(=O)N(C)CCOc4ccc(C)cc4)c3)nc2)N=N1 [Compound 234]	> 50%
Cc1ccc(OCCN(C)C(=O)Cn2cc(NC(=O)CCOc3cncc(N)c3)cn2)cc1 [Compound 235]	< 30%
C#CCCC1(CCC(=O)Nc2cncc(OCCC(=O)Nc3cnn(CC(=O)N(C)CCOc4ccc(C)cc4)c3)c2)N=N1 [Compound 236]	< 30%
Cc1ccc(OCCN(C)C(=O)Cn2cc(NC(=O)/C=C/Oc3cccnc3N)cn2)cc1 [Compound 237]	< 30%
Cc1nc(F)ccc1NCCC(=O)Nc1cnn(CC(=O)N(C)CCOc2cnn(C)c2)c1 [Compound 238, 3-[(6-fluoro-2-methyl-3-pyridyl)amino]-N-[1-[2-[methyl-[2-(1-methylpyrazol-4-yl)oxyethyl]amino]-2-oxo-ethyl]pyrazol-4-yl]propanamide]	< 30%
Cc1ccc2nc(OCCN(C)C(=O)Cn3cc(NC(=O)CCNc4ccc(F)nc4C)cn3)sc2c1 [Compound 239]	< 30%
